“And” between values parts separate entries of the source, which are not always exact repeats. Equal entries are not always repeated.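 Step 1: Grow cells in 96-well plates. Step 2: Expose to compound for 48 hours at 5 concentrations. Step 3: Interpolate endpoints linearly; if unreached, use highest concentration. GI50 = concentration required for 50% inhibition of growth. TGI is the concentration that stops growth completely.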 Bounds are passed on as bounds.

30 compounds from PubChem BioAssay (NCI) can be followed below.

For the assay, the system named is MDA-MB-468 breast. The assay is described as follows: NCI-60 cell line screen, 48 h.
Take `CC[C@@H](C)/C=C(C)/C=C/C(=O)c1c(O)c(-c2ccc(O)cc2)cn(O)c1=O`: the GI50 is 167 nM and the TGI came to 624 nM. Take `CCN(Cc1cccc(Cl)c1)c1ccc(CO)c(Cl)c1`: the GI50 was 25 nM and the TGI was 81.7 nM.

Consider `CCN(CC)CCCC(C)N/C(=C1\C(=O)NC(=O)\C1=C(/NC(C)CCCN(CC)CC)c1cccc(OC)c1)c1cccc(OC)c1` (centres undefined), for which the GI50 is 762 nM and the TGI stood at 1750 nM. Turning to `CC(=O)c1cc(C(=O)c2ccc3c(c2)Sc2ccccc2N3)n2ccccc12`, the GI50 was 2.56 nM and 3.32 nM.

On to `CSc1nc2c(c(=O)n1C)CN(C1CCCCC1)C(=O)C(c1ccccc1)N2` (centres undefined), for which the GI50 is 52200 nM and the TGI was more than 100000 nM. The like results for `Cc1cc(-c2cc(O)ccc2Cl)cc2nnc(Nc3ccc(OCCN4CCCC4)cc3)nc12` were, in that order, 583 nM and 2040 nM. The like results for `Clc1ccccc1-c1nnc2c(Cc3ccccc3)nc3ccccc3n12` were, in that order, 5240 nM and more than 100000 nM. Regarding `COc1cc(C2c3cc4c(cc3C(OC(=O)C[n+]3ccccc3)C3COC(=O)C23)OCO4)cc(OC)c1OC` (centres undefined), the GI50 was 24.2 nM and the TGI was 77.7 nM. The like results for `CN1CCN(C(=O)COc2ccc(/C=C3\CC4C5CC=C6CC(Cl)CCC6(C)C5CCC4(C)C3=O)cc2)CC1` (centres undefined) were, in that order, 6030 nM and more than 100000 nM. On the same counts, the results for `COc1ccc([C@@]23Oc4cc(OC)cc(OC)c4[C@]2(O)[C@H](O)[C@H](C(N)=O)[C@H]3c2ccccc2)cc1` are less than 10 nM and 45.8 nM. Turning to `COc1cc(C(=O)c2cnc(-c3cccc4[nH]ccc34)[nH]2)cc(OC)c1OC`, the GI50 was 64.6 nM and < 10 nM; the TGI is 88700 nM. With `O=S(=O)(Nc1ccc(I)c(Cl)c1)c1ccc(-c2cnc(C3CC3)o2)cc1`, the GI50 was 314 nM and the TGI worked out at 2650 nM. On the same counts, the results for `Cn1cc(-c2cnn3c(N)c(Br)c(C4CCCNC4)nc23)cn1` (centres undefined) are 11100 nM and 44100 nM. The like results for `CC(C)COc1nc2c(c(=O)n(C)c(=O)n2C)n1C` were, in that order, more than 100000 nM and more than 100000 nM. On the same counts, the results for `O=[N+]([O-])c1cc([N+](=O)[O-])c(Nn2c3ccccc3c3ccccc32)c([N+](=O)[O-])c1` are 274 nM and 782 nM. Regarding `CCNC(=O)Oc1ccc(/C(=C(/C)Cc2ccc(OC)cc2)c2ccc(OCCN(CC)CC)cc2)cc1`, the GI50 is 1630 nM and the TGI stood at 3460 nM. On the same counts, the results for `Cc1cc2c(-c3nc4ccccn4c3N)c(O)c(O)cc2c(O)c1-c1c(C)cc2c(-c3nc4ccccn4c3N)c(O)c(O)cc2c1O` are 538 nM and 3520 nM. The like results for `C#CCN(c1ccc(C(=O)N[C@@H](CCC(=O)N[C@H](CCC(=O)O)C(=O)O)C(=O)O)cc1)C1CCc2cc3nc(CO)[nH]c(=O)c3cc21` (some centres undefined) were, in that order, more than 23100 nM and more than 100000 nM. On the same counts, the results for `CN1CCN(Cc2ccc(NC(=O)c3cncc(C#Cc4cnc(N)c5cccnc45)c3)cc2C(F)(F)F)CC1` are 698 nM and more than 50000 nM.

`N#Cc1cnc(Nc2cc(NC[C@H]3CNCCO3)c(C(F)(F)F)cn2)cn1`: the GI50 is 16400 nM and the TGI was 37400 nM. On the same counts, the results for `CCCCCCCC/C=C/CCCCCCCC1=NC(C)(C)CN1CCO` are 1670 nM and 3210 nM. The like results for `CCOc1ccn(-c2ccc(F)cc2)c(=O)c1C(=O)Nc1ccc(Oc2ccnc(N)c2Cl)c(F)c1` were, in that order, 5700 nM and 34800 nM. Consider `CC(=O)[C@H]1CCC/C=C/[C@@H]2C[C@H](O)C[C@H]2[C@H](O)/C=C/C(=O)O1`, for which the GI50 is 159 nM and the TGI came out at 687 nM. On the same counts, the results for `CC(=O)C1=C(O)C=C2Oc3c(C(=O)/C=C/c4cc(Cl)cc(Cl)c4)c(O)c(C)c(O)c3[C@]2(C)C1=O` are 529 nM and 1340 nM. On the same counts, the results for `Cc1cc(C)c(-c2c(N)cc(Br)cc2Br)c(N)c1` are 2240 nM and 5760 nM.

For the compound `CN1C(=O)[C@]23SSC1(C)C(=O)N2[C@H]1Nc2ccccc2C1([C@@]12c4ccccc4N[C@@H]1N1C(=O)C4(C)SS[C@]1(C(=O)N4C)[C@H]2O)[C@@H]3O` (some centres undefined), the GI50 is 35.1 nM and 115 nM; the TGI is 103 nM and 322 nM.

On to `CO[C@H]1CC(O[C@@H]2/C(C)=C/C[C@@H]3C[C@@H](C[C@]4(CC[C@H](C)[C@@H](C5CCCCC5)O4)O3)OC(=O)[C@@H]3C=C(C)/C(=N/O)[C@H]4OC/C(=C\C=C\[C@@H]2C)[C@]43O)O[C@@H](C)C1O` (some centres undefined), for which the GI50 is 793 nM and the TGI was 1760 nM.

Take `c1ccc(CNCCN(CCNCc2ccccn2)Cc2ccc3ccccc3c2)nc1`: the GI50 was 2180 nM and the TGI turned out to be 4920 nM. The like results for `Cc1cc(Nc2nc(N[C@@H](C)c3ncc(F)cn3)ncc2Cl)n[nH]1` were, in that order, 18200 nM and 52100 nM. On the same counts, the results for `Cc1cc(Nc2cc(N3CCN(C)CC3)nc(/C=C/c3ccccc3)n2)n[nH]1` are 590 nM and 2440 nM.
